Measured values: patent US9132141B2 (priority 2012, dated 2015)

Tested on: non-adapted human Wuhan H3N2 strain
Assay type: in vivo
Settings: cotton rats

## CCCCCC/C=C\CCCCCCCCCC(=O)N[C@H]1[C@H](OC[C@H]2O[C@H](OP(=O)(O)O)[C@H](NC(=O)CC(=O)CCCCCCCCCCC)[C@@H](OCCCCCCCCCC)[C@@H]2O)O[C@H](COC)[C@@H](OP(=O)(O)O)[C@@H]1OCC[C@@H](CCCCCCC)OC [eritoran, α-D-Glucopyranose, 3-O-decyl-2-deoxy-6-O-[2-deoxy-3-O-[(3R)-3-methoxydecyl)-6-O-methyl-2-[[(-11Z)-1-oxo-11-octadecenyl)amino]-4-O-phosphono-β-D-glucopyranosyl]-2-[(1,3-dioxotetradecyl)amino]-1-(dihydrogen phosphate)]
  lung expression of IL-6 and IL-10: decreased lung expression of IL-6 and IL-10
